Ten compounds from patent publication US20260207578A1, “COMPOUND BASED ON SULFUR/OXYGEN SUBSTITUTED GLUTARIMIDE-BASED ISOINDOLINONE SKELETON AND USE THEREOF” (Gluetacs Therapeutics (Shanghai) Co., LTD., priority 2022, published 2026) can be followed below.

One assay has as its target T1, Wee1 (Homo sapiens, UniProt P30291+Q96SW2).
T1 construct: endogenous in cells; host or cells: human PBMCs (Milecell Biotechnologies)
Description: Western-blot assay, substrate protein in hPBMCs. The assay is classed as cell-based. As to conditions: hPBMC cells, 24 hours, tested at 50 nM and 500 nM, table does not say which. Put shortly:
(§1)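 Steps: treat hPBMCs 24 h; lyse on ice in RIPA with phosphatase inhibitors; quantify protein by BCA; denature at 95 °C and blot. Remaining protein (%) is the target/internal-control band ratio, normalised; degradation rate is its complement.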

The target of a further assay is T2, GSPT1 (Homo sapiens, UniProt P15170+Q96SW2).
T2 construct: endogenous in cells; host or cells: human PBMCs (Milecell Biotechnologies)
Kind of assay: Western-blot assay, substrate protein in hPBMCs. The following applies: hPBMC cells, 24 hours, tested at 50 nM and 500 nM, table does not say which. The assay is classed as cell-based. In short, it runs like this:
as §1

Assay [1] deals with T3, human Cereblon WT GST-tagged protein (Homo sapiens, UniProt Q96SW2).
T3 construct: purchased CISBIO 64BDCRBNPEH
Description: CRBN-binding affinity, HTRF (CEREBLON BINDING kit). As to conditions: displacement of Thalidomide-Re reagent, 3 hours at room temperature. Put shortly:
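HTRF competition format: compound, GST-tagged wild-type human Cereblon, Thalidomide-Re tracer and GST Eu antibody were combined in PROTAC binding buffer. Binding was derived from emission at 620 nm relative to blank and solvent control wells.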
For orientation: Time-resolved FRET reads energy transfer from a long-lived donor to a nearby acceptor.

A further assay deals with CCRF-CEM. Kind of assay: Half inhibitory concentration (IC50) against tumor cells, Cell Counting Kit-8. The format is cell-based. The following applies: Homo sapiens, CCK-8, 96 h treatment, read-out: inhibitory activity (IC50, nM) against tumor cells proliferation. As to the method:
(§2) The tumor cells used herein were cultured in a cell culture medium listed in table A at 37° C. in an incubator with 5% CO2.
(§3) After the cells were treated with the compounds of the present disclosure for a period of time, the cell viability detection reagent was added to the culture medium for cell viability assessment according to the instructions provided with the CCK-8 kit. […] The growth inhibition of the compounds of the present disclosure on cells was plotted by Prism Graphpad software, and the IC50 values of the compounds of the present disclosure were calculated therefrom.
A general note: Tetrazolium assays rely on reduction of a dye to a coloured formazan, in cell work by metabolically active cells.

The subject of the next assay is CAL-62. Described as above. The assay is classed as cell-based. As to conditions: Homo sapiens, CCK-8, 96 h treatment, read-out: inhibitory activity (IC50, nM) against tumor cells proliferation. As to the method:
as §2, §3

Another assay has as its target T4, CK1α (Homo sapiens, UniProt P48729+Q96SW2).
T4 construct: endogenous in cells; host or cells: human PBMCs (Milecell Biotechnologies)
Kind of assay: Western-blot assay, substrate protein in hPBMCs. The assay is classed as cell-based. The following applies: hPBMC cells, 24 hours, tested at 50 nM and 500 nM, table does not say which. In short, it runs like this:
as §1

Another assay has as its target T5, IKZF2 (Homo sapiens, UniProt Q96SW2+Q9UKS7).
T5 construct: endogenous in cells; host or cells: human PBMCs (Milecell Biotechnologies)
Description: Western-blot assay, substrate protein in hPBMCs. The assay is classed as cell-based. The following applies: hPBMC cells, 24 hours, tested at 50 nM and 500 nM, table does not say which. In short, it runs like this:
as §1

A further assay has as its target T6, IKZF3 (Homo sapiens, UniProt Q96SW2+Q9UKT9).
T6 construct: endogenous in cells; host or cells: human PBMCs (Milecell Biotechnologies)
Description: Western-blot assay, substrate protein in hPBMCs. The format is cell-based. The following applies: hPBMC cells, 24 hours, tested at 50 nM and 500 nM, table does not say which. In short, it runs like this: (§4)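 hPBMCs (1×10^6 cells/mL) exposed 24 h to compound at 50 nM and 500 nM, lysed, and probed by Western blot. Band grayscale normalized to internal control gives % protein remaining versus DMSO; DC50 from concentration-response fit at half DMSO band intensity.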

The next assay has as its target T7, IKZF1 (Homo sapiens, UniProt Q13422+Q96SW2).
T7 construct: endogenous in cells; host or cells: human PBMCs (Milecell Biotechnologies)
Kind of assay: Western-blot assay, substrate protein in hPBMCs. The format is cell-based. As to conditions: hPBMC cells, 24 hours, tested at 50 nM and 500 nM, table does not say which. In short, it runs like this:
as §4

A further assay deals with MV-4-11. Description: Half inhibitory concentration (IC50) against tumor cells, Cell Counting Kit-8. The following applies: Homo sapiens, MV4-11, CCK-8, 96 h treatment, read-out: inhibitory activity (IC50, nM) against tumor cells proliferation. The assay is classed as cell-based. As to the method: as §2, §3

Molecules are shown by their SMILES. Bounds are passed on as bounds.

T4 sequence (P48729 whole entry): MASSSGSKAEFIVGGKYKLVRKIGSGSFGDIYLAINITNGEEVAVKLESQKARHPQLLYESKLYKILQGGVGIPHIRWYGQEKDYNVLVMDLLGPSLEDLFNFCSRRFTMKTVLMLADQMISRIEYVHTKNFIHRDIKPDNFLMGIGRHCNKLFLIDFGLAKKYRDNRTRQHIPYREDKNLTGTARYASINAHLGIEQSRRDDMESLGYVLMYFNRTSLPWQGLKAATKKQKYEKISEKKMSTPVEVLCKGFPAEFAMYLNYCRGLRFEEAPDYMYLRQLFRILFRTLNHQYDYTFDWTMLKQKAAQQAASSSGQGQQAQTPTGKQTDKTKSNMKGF
T4 sequence (Q96SW2 whole entry): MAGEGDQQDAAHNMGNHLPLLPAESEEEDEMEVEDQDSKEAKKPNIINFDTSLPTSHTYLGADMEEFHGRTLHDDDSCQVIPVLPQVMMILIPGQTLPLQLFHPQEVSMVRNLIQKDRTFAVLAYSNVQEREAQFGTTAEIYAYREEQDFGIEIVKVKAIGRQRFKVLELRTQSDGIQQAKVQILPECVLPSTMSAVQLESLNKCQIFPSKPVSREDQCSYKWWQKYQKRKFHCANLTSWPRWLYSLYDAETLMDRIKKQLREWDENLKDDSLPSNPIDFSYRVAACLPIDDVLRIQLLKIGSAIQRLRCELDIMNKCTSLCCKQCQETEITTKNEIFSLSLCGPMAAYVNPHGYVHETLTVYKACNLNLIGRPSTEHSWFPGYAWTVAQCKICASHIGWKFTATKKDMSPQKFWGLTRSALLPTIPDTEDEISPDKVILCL
T4 sequence (Q16531 whole entry partner): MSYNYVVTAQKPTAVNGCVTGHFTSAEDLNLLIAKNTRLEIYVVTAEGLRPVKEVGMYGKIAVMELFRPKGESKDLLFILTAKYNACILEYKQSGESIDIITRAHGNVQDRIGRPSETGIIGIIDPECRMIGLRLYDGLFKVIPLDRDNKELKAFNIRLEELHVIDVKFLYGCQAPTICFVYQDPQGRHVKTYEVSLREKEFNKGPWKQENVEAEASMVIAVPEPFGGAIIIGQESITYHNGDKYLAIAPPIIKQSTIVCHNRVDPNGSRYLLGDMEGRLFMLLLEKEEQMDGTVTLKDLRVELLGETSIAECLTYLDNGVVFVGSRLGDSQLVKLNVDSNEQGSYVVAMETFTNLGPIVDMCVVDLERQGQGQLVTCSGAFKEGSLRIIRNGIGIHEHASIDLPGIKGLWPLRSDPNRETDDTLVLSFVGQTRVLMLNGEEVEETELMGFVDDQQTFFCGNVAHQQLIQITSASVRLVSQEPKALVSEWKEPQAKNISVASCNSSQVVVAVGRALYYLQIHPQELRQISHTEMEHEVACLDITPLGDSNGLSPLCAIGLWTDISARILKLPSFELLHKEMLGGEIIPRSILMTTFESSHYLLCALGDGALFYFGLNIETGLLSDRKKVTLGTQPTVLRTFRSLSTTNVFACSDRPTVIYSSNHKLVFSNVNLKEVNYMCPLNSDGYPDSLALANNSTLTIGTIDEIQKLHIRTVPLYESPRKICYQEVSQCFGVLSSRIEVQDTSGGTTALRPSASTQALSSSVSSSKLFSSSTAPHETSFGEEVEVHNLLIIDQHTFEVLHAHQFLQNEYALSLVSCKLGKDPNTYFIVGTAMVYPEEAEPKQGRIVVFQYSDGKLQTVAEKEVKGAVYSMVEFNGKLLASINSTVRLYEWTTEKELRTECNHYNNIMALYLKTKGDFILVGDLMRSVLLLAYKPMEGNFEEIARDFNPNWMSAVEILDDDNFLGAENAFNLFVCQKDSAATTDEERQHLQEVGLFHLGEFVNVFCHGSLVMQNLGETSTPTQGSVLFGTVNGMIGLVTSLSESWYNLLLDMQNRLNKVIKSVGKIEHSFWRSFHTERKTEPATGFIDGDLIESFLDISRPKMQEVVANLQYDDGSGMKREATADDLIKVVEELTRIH
T6 sequence (Q9UKT9 whole entry): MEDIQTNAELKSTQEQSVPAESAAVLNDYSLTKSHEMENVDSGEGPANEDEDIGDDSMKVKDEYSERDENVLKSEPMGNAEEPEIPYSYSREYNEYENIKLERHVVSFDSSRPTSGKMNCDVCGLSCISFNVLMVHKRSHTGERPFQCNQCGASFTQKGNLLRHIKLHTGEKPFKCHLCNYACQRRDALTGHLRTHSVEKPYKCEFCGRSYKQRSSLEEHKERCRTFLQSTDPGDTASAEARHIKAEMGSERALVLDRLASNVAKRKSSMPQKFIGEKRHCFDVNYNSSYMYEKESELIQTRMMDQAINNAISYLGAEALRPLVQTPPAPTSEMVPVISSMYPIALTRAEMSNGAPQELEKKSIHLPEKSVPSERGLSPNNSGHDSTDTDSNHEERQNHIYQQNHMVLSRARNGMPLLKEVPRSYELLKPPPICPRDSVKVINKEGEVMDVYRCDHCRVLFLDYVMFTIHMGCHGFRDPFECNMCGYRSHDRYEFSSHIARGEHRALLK
T6 sequence (Q96SW2 whole entry): as the sequence (Q96SW2 whole entry) above
T6 sequence (Q16531 whole entry partner): as the sequence (Q16531 whole entry partner) above
T1 sequence (P30291 whole entry): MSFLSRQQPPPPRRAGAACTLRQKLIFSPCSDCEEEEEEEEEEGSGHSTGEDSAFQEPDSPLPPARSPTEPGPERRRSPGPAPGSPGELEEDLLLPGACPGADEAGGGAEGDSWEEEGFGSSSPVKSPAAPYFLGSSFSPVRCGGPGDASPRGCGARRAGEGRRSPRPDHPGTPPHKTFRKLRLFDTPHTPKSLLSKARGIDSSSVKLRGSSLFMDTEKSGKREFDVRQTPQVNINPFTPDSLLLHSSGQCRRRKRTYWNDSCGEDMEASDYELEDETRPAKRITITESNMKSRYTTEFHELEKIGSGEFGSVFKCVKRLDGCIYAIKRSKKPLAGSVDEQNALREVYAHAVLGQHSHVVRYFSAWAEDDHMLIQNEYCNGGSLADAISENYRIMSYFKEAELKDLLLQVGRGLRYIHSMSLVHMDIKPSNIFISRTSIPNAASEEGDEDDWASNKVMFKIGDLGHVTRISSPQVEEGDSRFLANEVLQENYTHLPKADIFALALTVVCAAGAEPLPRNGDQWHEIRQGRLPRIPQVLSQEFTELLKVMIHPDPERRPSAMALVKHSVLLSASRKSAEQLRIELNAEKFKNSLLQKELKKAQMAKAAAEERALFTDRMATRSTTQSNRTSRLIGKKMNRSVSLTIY
T1 sequence (Q96SW2 whole entry): as the sequence (Q96SW2 whole entry) above
T1 sequence (Q16531 whole entry partner): as the sequence (Q16531 whole entry partner) above
T5 sequence (Q9UKS7 whole entry): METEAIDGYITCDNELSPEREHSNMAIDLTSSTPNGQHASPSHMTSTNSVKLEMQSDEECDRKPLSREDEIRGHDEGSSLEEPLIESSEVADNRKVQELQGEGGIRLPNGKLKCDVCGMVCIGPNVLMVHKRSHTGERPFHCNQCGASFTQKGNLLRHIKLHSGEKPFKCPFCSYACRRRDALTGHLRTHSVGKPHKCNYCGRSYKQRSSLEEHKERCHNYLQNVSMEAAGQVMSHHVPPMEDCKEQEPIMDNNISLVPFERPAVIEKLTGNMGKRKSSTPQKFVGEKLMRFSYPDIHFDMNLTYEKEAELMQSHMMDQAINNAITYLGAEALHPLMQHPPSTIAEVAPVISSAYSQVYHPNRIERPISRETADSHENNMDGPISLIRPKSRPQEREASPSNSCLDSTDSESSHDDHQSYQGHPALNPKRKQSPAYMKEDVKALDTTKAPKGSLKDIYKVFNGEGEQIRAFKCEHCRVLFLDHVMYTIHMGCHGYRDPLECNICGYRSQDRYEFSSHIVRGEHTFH
T5 sequence (Q96SW2 whole entry): as the sequence (Q96SW2 whole entry) above
T5 sequence (Q16531 whole entry partner): as the sequence (Q16531 whole entry partner) above
T2 sequence (P15170 whole entry): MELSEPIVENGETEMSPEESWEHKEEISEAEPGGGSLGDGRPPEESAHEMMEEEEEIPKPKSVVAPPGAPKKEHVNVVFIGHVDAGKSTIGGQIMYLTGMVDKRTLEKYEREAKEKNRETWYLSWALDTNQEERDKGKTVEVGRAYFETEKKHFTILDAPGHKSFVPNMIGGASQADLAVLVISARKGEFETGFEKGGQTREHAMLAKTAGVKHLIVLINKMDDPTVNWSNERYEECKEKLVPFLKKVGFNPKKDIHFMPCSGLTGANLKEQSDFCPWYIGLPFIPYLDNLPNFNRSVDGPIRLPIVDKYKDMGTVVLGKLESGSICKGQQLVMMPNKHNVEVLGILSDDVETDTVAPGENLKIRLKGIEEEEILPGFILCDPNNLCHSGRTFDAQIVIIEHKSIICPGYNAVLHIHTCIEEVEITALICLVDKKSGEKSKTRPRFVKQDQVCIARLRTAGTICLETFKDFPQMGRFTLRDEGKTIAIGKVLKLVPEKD
T2 sequence (Q96SW2 whole entry): as the sequence (Q96SW2 whole entry) above
T2 sequence (Q16531 whole entry partner): as the sequence (Q16531 whole entry partner) above
T3 sequence (Q96SW2 whole entry): as the sequence (Q96SW2 whole entry) above

For `CC1(C)CCC(CN2CCC(Sc3ccc4c(c3)CN(C3CCC(=O)NC3=O)C4=O)CC2)=C(c2ccc(Cl)cc2)C1` (stereo not shown) [GT-03462, 3-(5-((1-((4′-chloro-5,5-dimethyl-3,4,5,6-tetrahydro-[1,1′-biphenyl]-2-yl)methyl)piperidin-4-yl)thio)-1-oxoisoindolin-2-yl)piperidine-2,6-dione], the “substrate protein remaining %” value on Wee1 and at GSPT1 was “A (0%≤ substrate protein remaining % ≤80%)” in each case. Also, the IC50 is 500 to 1000 nM in assay [1], 500 to 1000 nM in the assay with CCRF-CEM and 100 to 500 nM with CAL-62.

With `CC1(C)CCC(CN2CCC(Oc3ccc4c(c3)CN(C3CCC(=O)NC3=O)C4=O)C2)=C(c2ccc(Cl)cc2)C1` (stereo not shown) [GT-06815, 3-(5-((1-((4′-chloro-5,5-dimethyl-3,4,5,6-tetrahydro-[1,1′-biphenyl]-2-yl)methyl)pyrrolidin-3-yl)oxy)-1-oxoisoindolin-2-yl)piperidine-2,6-dione], the “substrate protein remaining %” value on CK1α, on Wee1, at GSPT1, at IKZF2, at IKZF3 and at IKZF1 was “A (0%≤ substrate protein remaining % ≤80%)” in each case. Moreover, the figures for the IC50 (in assay [1]; in the assay with MV-4-11) were 1000 to 1900 nM and 500 to 1000 nM, respectively.

As to `CC1(C)CCC(CN2CCC3(CC2)CC(Sc2ccc4c(c2)CN(C2CCC(=O)NC2=O)C4=O)C3)=C(c2ccc(Cl)cc2)C1` (stereo not shown) [GT-06873, 3-(5-((7-((4′-chloro-5,5-dimethyl-3,4,5,6-tetrahydro-[1,1′-biphenyl]-2-yl)methyl)-7-azaspiro[3.5]nonan-2-yl)thio)-1-oxoisoindolin-2-yl)piperidine-2,6-dione], the “substrate protein remaining %” value at CK1α, on Wee1, on GSPT1, at IKZF2, on IKZF3 and on IKZF1 was “A (0%≤ substrate protein remaining % ≤80%)” each time. Moreover, the IC50 in assay [1] lay in the range of 1000 to 1900 nM; in the assay on MV-4-11 it was 10 to 50 nM.

In the case of `CC1(C)CCC(CN2CCC3(CCC(Sc4ccc5c(c4)CN(C4CCC(=O)NC4=O)C5=O)CC3)CC2)=C(c2ccc(Cl)cc2)C1` (stereo not shown) [GT-06874, 3-(5-((3-((4′-chloro-5,5-dimethyl-3,4,5,6-tetrahydro-[1,1′-biphenyl]-2-yl)methyl)-3-azaspiro[5.5]undecan-9-yl)thio)-1-oxoisoindolin-2-yl)piperidine-2,6-dione], the “substrate protein remaining %” value at CK1α, at Wee1, on GSPT1, on IKZF2 and at IKZF3 was “A (0%≤ substrate protein remaining % ≤80%)” each time. Further, the IC50 in assay [1] was 1000 to 1900 nM; in the assay with MV-4-11, 100 to 500 nM.

For the compound `CC1(C)CCC(C(=O)N2CCC3(CC2)CC(Sc2ccc4c(c2)CN(C2CCC(=O)NC2=O)C4=O)C3)=C(c2ccc(Cl)cc2)C1` (stereo not shown) [GT-06918, 3-(5-((7-(4′-chloro-5,5-dimethyl-3,4,5,6-tetrahydro-[1,1′-biphenyl]-2-carbonyl)-7-azaspiro[3.5]nonan-2-yl)thio)-1-oxoisoindolin-2-yl)piperidine-2,6-dione], the “substrate protein remaining %” value on Wee1, at IKZF2, on IKZF3 and at IKZF1 was “A (0%≤ substrate protein remaining % ≤80%)” throughout. Further, the IC50 lay in the range of 500 to 1000 nM in assay [1] and 100 to 500 nM in the assay with MV-4-11.

Consider `O=C1CCC(N2Cc3cc(SC4CCN(Cc5ccccc5-c5ccc(Cl)cc5)CC4(F)F)ccc3C2=O)C(=O)N1` (stereo not shown) [GT-06924, 3-(5-((1-((4′-chloro-[1,1′-biphenyl]-2-yl)methyl)-3,3-difluoropiperidin-4-yl)thio)-1-oxoisoindolin-2-yl)piperidine-2,6-dione], for which the “substrate protein remaining %” value on CK1α, at GSPT1 and on IKZF1 was “A (0%≤ substrate protein remaining % ≤80%)” each time. In addition, the IC50 with CCRF-CEM fell in the range of 500 to 1000 nM; with MV-4-11, 100 to 500 nM.

`O=C1CCC(N2Cc3cc(SC4CCN(C(=O)c5ccccc5-c5ccc(Cl)cc5)CC4(F)F)ccc3C2=O)C(=O)N1` (stereo not shown) [GT-06925, 3-(5-((1-(4′-chloro-[1,1′-biphenyl]-2-carbonyl)-3,3-difluoropiperidin-4-yl)thio)-1-oxoisoindolin-2-yl)piperidine-2,6-dione]: the “substrate protein remaining %” value on CK1α, at Wee1, at GSPT1, at IKZF2, on IKZF3 and at IKZF1 was “A (0%≤ substrate protein remaining % ≤80%)” throughout. Moreover, the IC50 in [1] was 500 to 1000 nM; with MV-4-11, 1 to 10 nM.

In the case of `O=C1CCC(N2Cc3cc(OC4CCCN(Cc5ccccc5-c5ccc(Cl)cc5)CC4)ccc3C2=O)C(=O)N1` (stereo not shown) [GT-06934, 3-(5-((1-((4′-chloro-[1,1′-biphenyl]-2-yl)methyl)azepan-4-yl)oxy)-1-oxoisoindolin-2-yl)piperidine-2,6-dione], the “substrate protein remaining %” value at CK1α, on Wee1 and at IKZF2 was “A (0%≤ substrate protein remaining % ≤80%)” throughout. The values for the IC50 (in assay [1]; with MV-4-11) were less than 500 nM and 100 to 500 nM, respectively.

As to `O=C1CCC(N2Cc3cc(OC4CC5CN(C(c6ccccc6)c6ccccc6)CC5C4)ccc3C2=O)C(=O)N1` (stereo not shown) [GT-06955, 3-(5-((2-benzhydryloctahydro-cyclopenta[c]pyrrol-5-yl)oxy)-1-oxoisoindolin-2-yl)piperidine-2,6-dione], the “substrate protein remaining %” value on CK1α, at IKZF2 and at IKZF1 was “A (0%≤ substrate protein remaining % ≤80%)” in each case. Also, the IC50 in assay [1] was less than 500 nM; with MV-4-11, 50 to 100 nM.

Regarding `O=C1CCC(N2Cc3cc(OC4CC5(CCN(C(c6ccccc6)c6ccccc6)CC5)C4)ccc3C2=O)C(=O)N1` (stereo not shown) [GT-06956, 3-(5-((7-benzhydryl-7-azaspiro[3.5]nonan-2-yl)oxy)-1-oxoisoindolin-2-yl)piperidine-2,6-dione], the “substrate protein remaining %” value at CK1α, at Wee1, on IKZF2, at IKZF3 and on IKZF1 was “A (0%≤ substrate protein remaining % ≤80%)” in each case. Also, the IC50 in [1] was less than 500 nM; in the assay on MV-4-11, 500 to 1000 nM.
